{"source": "the supplement of paper PMC10307832", "assay_in_all_cases": "relative viability (nuclei count vs DMSO), 5 days (fraction); higher = more cells survive", "key": {"[1]": {"compound": "C1COCCN1C2=NC(=NC3=C2OC4=C3C=CC=N4)C5=CC(=CC=C5)NC(=O)C6=CN=C(C=C6)N + CC(=O)Nc1cccc(-n2c(=O)n(C3CC3)c(=O)c3c(Nc4ccc(I)cc4F)n(C)c(=O)c(C)c32)c1 [Trametinib] (partner 0.02 µM)", "summary_of_the_method": "(§1)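 Relative viability was taken as the ratio of nuclei in treated wells to nuclei in vehicle wells. Lung cancer cell lines in 1536-well plates received compounds by pin tool one day after seeding, either one drug alone or a fixed anchor-drug dose plus five library-drug doses (not always all listed) in √10 steps. Nuclei were counted on 4× images after 5 days of treatment, and values are medians of duplicate plates.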"}, "Entinostat + Decitabine": {"compound": "Nc1ccccc1NC(=O)c1ccc(CNC(=O)OCc2cccnc2)cc1 [Entinostat] + Nc1ncn([C@H]2C[C@H](O)[C@@H](CO)O2)c(=O)n1 [Decitabine] (partner 2 µM)", "summary_of_the_method": "as §1"}, "[2]": {"compound": "C1COCCN1C2=NC(=NC3=C2OC4=C3C=CC=N4)C5=CC(=CC=C5)NC(=O)C6=CN=C(C=C6)N + Cc1nc(NC(=O)N2CCC[C@H]2C(N)=O)sc1-c1ccnc(C(C)(C)C(F)(F)F)c1 [Alpelisib] (partner 2 µM)", "summary_of_the_method": "as §1"}, "[3]": {"compound": "C1COCCN1C2=NC(=NC3=C2OC4=C3C=CC=N4)C5=CC(=CC=C5)NC(=O)C6=CN=C(C=C6)N + Nc1nc2[nH]cc(CCc3ccc(C(=O)N[C@@H](CCC(=O)O)C(=O)O)cc3)c2c(=O)[nH]1 [Pemetrexed] (partner 0.2 µM)", "summary_of_the_method": "as §1"}}, "data": [{"cell line": "UMC-11", "values": [{"measurement": "relative viability", "setting": "[1]; first compound 0.02 µM", "value": 0.733}, {"measurement": "relative viability", "setting": "[1]; first compound 0.06325 µM", "value": 0.809}, {"measurement": "relative viability", "setting": "[1]; first compound 0.2 µM", "value": 0.572}, {"measurement": "relative viability", "setting": "[1]; first compound 0.6325 µM", "value": 0.706}, {"measurement": "relative viability", "setting": "[1]; first compound 2 µM", "value": 0.614}, {"measurement": "relative viability", "setting": "Entinostat + Decitabine; first compound 0.02 µM", "value": 0.65}, {"measurement": "relative viability", "setting": "Entinostat + Decitabine; first compound 0.06325 µM", "value": 0.681}, {"measurement": "relative viability", "setting": "Entinostat + Decitabine; first compound 0.2 µM", "value": 0.506}, {"measurement": "relative viability", "setting": "Entinostat + Decitabine; first compound 0.6325 µM", "value": 0.386}, {"measurement": "relative viability", "setting": "Entinostat + Decitabine; first compound 2 µM", "value": 0.725}, {"measurement": "relative viability", "setting": "[2]; first compound 0.02 µM", "value": 1.06}, {"measurement": "relative viability", "setting": "[2]; first compound 0.06325 µM", "value": 1.04}, {"measurement": "relative viability", "setting": "[2]; first compound 0.2 µM", "value": 1.03}, {"measurement": "relative viability", "setting": "[2]; first compound 0.6325 µM", "value": 1.08}, {"measurement": "relative viability", "setting": "[2]; first compound 2 µM", "value": 0.593}, {"measurement": "relative viability", "setting": "[3]; first compound 0.02 µM", "value": 0.772}, {"measurement": "relative viability", "setting": "[3]; first compound 0.06325 µM", "value": 0.827}, {"measurement": "relative viability", "setting": "[3]; first compound 0.2 µM", "value": 0.694}, {"measurement": "relative viability", "setting": "[3]; first compound 0.6325 µM", "value": 0.814}, {"measurement": "relative viability", "setting": "[3]; first compound 2 µM", "value": 0.445}]}]}
